# From paper PMC12431657, “Discovery and mechanistic insights of dibenzoylmethane as a broad spectrum inhibitor of coronavirus” (PLOS Pathogens, 2025)
# Values joined by “and” are separate entries in the source; they are usually repeats but may differ in a detail not shown here. Equal entries are not always repeated.
# Key:
# [1] = Metabolic stability in mouse liver microsomes; format: in vitro ADME; conditions: average, read-out: T1/2 of metabolism
# Procedure: Thus, a pharmacokinetic study was performed for DBM in Sprague-Dawley (SD) rats. Following oral administration of menstruum or DBM at 200 mpk, blood samples from the rats were collected at 2 min, 5 min, 15 min, 30 min, 1 h, 2 h, 4 h, 8 h, and 24 h posttreatment. The concentration of DBM in the plasma was determined by liquid chromatography with tandem mass spectrometry (LC-MS/MS). The minimum effective concentration (MEC) line in the graph represents the EC95 value of DBM (Fig 3C). […] To analyse the metabolic stability of DBM, we incubated human and mouse liver microsomes with DBM. The T1/2 of metabolism was an average of 13.92 min in human liver microsomes and 4.84 min in mouse liver microsomes.
# IFN signalling = assay: IFNB1 and IFN-stimulated gene expression (qPCR); format: cell-based
# HCoV-NL63 = assay: Antiviral activity in vitro, HCoV-NL63; format: cell-based; conditions: Human coronavirus NL63, read-out: EC50 HCoV-NL63
# in vivo = conditions: Sprague-Dawley, rat, po, 200 mg/kg
# Huh-7 cells = format: cell-based
# HCoV-OC43 [2] = assay: Immunoplaque assay, viral titres of organs and tissues of infected mice; format: in vivo, BALB/c suckling mice
# Procedure: Next, we characterized the therapeutic efficacy of the DBM in vivo. In this experiment, randomized 5–6-day-old suckling BALB/c mice were orally treated with DBM at concentrations of 500, 200, and 100 mpk 2 hours after being intranasally challenged with HCoV-OC43. Menstruum and VV116 were used as negative and positive controls, respectively. All the mice were sacrificed on Day 5 for organ and sample collection (Fig 4A). The body weight changes of the mice were continuously monitored during the trial. Infection with HCoV-OC43 led to body weight loss in the vehicle-treated mice on Day 5 (Fig 4B). […] The number of viral RNA copies from the brain, spinal cord, lungs, and kidneys were analysed via qRT-PCR, which targeted the HCoV-OC43 nucleocapsid gene sequence. On Day 5, the number of viral RNA copies in the vehicle-treated group reached approximately 10^12 copies in the brain, 10^9 copies in the spinal cord, 10^8 copies in the lungs, and 10^6 copies in the kidney (Fig 4C). In the mice treated with DBM at 500 mpk, the number of viral RNA copies within these organs and tissues was reduced by 1–3 logs compared with the vehicle-treated group. […] Sections of mouse brains, spinal cords, lungs, and kidneys were subjected to immunofluorescence staining with antibodies targeting HCoV-OC43 nucleocapsid proteins.
# Fig 4 In vivo antiviral efficacy of DBM in 5-day-old BALB/c suckling mice infected with HCoV-OC43. A) Schematic of the experimental design for evaluating DBM in suckling mice. Each group consisted of 5-6 suckling mice. The schematic was created by the authors using Adobe Illustrator 2022. B) Body weight changes of mice during the experiment. Body weights were recorded daily and all mice were euthanised on the fifth day after infection. C) Viral RNA copies in the brains, spinal cords, lungs, and kidneys of mice collected on Day 5. After grinding and centrifuging the samples with DMEM, viral copies from the supernatants were tested by qRT-PCR. D) Viral titres in homogenised organs and tissues collected from mice on Day 5. E) Immunofluorescence staining of brain and lung sections from mice treated with different regimens. HCoV-OC43 nucleocapsid proteins were detected by immunofluorescence (green). Cell nuclei were stained with DAPI (blue). Data were statistically analyzed with Student’s T test. *: p ≤ 0.05, **: p ≤ 0.01, ***: p ≤ 0.001, ****: p ≤ 0.0001; ns, not significant. The experiments were repeated three times independently with similar results. […] No numeric values are printed in any panel, and nothing was read off the bars, points or curves.
# RD cells were preseeded onto 24-well plates and incubated at 37 °C for 24 hours until they reached 90% confluence. The supernatants from the homogenized organs and tissues were serially diluted 10-fold in DMEM. Subsequently, 50 μL of each dilution was added to the wells. Following a 1-hour incubation at 37 °C, the inoculum was removed, and 200 μL of overlay medium (DMEM containing 2% FBS and 1.5% carboxymethyl cellulose) was added to the wells. Four days postinfection, the cells were fixed with 4% paraformaldehyde for 2 hours, followed by three washes with phosphate-buffered saline (PBS). The fixed cells were then permeabilized with 0.5% Triton X-100 for 30 minutes and blocked with 5% bovine serum albumin (BSA) for 30 minutes at room temperature. The cells were subsequently incubated with anti-HCoV-OC43 nucleocapsid protein rabbit serum (ABclonal, SA00001–2) as the primary antibody and HRP-conjugated anti-rabbit IgG (Proteintech) as the secondary antibody, followed by staining with a DAB staining kit (TIANGEN, PA110).
# HCoV-OC43 [3] = assay: Antiviral activity in vitro, qRT-PCR, HCoV-OC43 in Huh-7 cells; format: cell-based; conditions: for HCoV-OC43, Huh-7: inhibition at the concentration (Fig2B): replicates
smiles,measurement,setting,value
"O=C(CC(=O)c1ccccc1)c1ccccc1 [DBM, dibenzoylmethane]",half-life,[1],4.84 min
same,IFITM3 expression,IFN signalling,1.19 and 1.66 and 1.36
same,IFNB1 expression,IFN signalling,6.09 and 4.34 and 4.64
same,OAS1 expression,IFN signalling,1.74 and 2.26 and 1.65
same,"suppression of IFN signalling by caspase-6 and nucleocapsid proteins (IFNB1, ISGs)",IFN signalling,reversed the suppression of IFN signalling
same,IFN signalling in HCoV-OC43-infected cells,IFN signalling; IFNB1 and ISG mRNA,enhanced IFN signalling
same,EC50,HCoV-NL63,11.7 µM
same,AUC(0-t),in vivo,34300 ng·h/mL
same,Cmax,in vivo,4760 ng/mL
same,half-life,in vivo,2.91 h
same,treated/untreated,Huh-7 cells,1.279 and 1.276 and 1.31 and 1.204 and 1.484
same,Viral load in tissue (Fig4D),"HCoV-OC43 [2]; Brain, group G3 DIBEN100, individual mice",2.4E+06 and 2.9E+06 and 1.6E+06 and 1.9E+06 and 2.5E+06 and 2.3E+06
same,Viral load in tissue (Fig4D),"HCoV-OC43 [2]; Brain, group G4 DIBEN200, individual mice",2.4E+05 and 2.9E+05 and 1.6E+05 and 2.0E+05 and 2.5E+05
same,Viral load in tissue (Fig4D),"HCoV-OC43 [2]; Brain, group G5 DIBEN500, individual mice",5.0E+01 and 0.0E+00 and 3.1E+03
same,viral titres of the organs and tissues,HCoV-OC43 [2]; DBM 500 mpk,led to a reduction in viral loads
same,Viral load in tissue (Fig4D),"HCoV-OC43 [2]; Kidney, group G3 DIBEN100, individual mice",229.9 and 104.0 and 219.4 and 123.5 and 219.8 and 790.8
same,Viral load in tissue (Fig4D),"HCoV-OC43 [2]; Kidney, group G4 DIBEN200, individual mice",0.0
same,Viral load in tissue (Fig4D),"HCoV-OC43 [2]; Kidney, group G5 DIBEN500, individual mice",84.6 and 0.0
same,Viral load in tissue (Fig4D),"HCoV-OC43 [2]; Lung, group G3 DIBEN100, individual mice",0.0 and 160.4 and 76.7 and 2219.2 and 1455.2
same,Viral load in tissue (Fig4D),"HCoV-OC43 [2]; Lung, group G4 DIBEN200, individual mice",275.5 and 0.0 and 394.7
same,Viral load in tissue (Fig4D),"HCoV-OC43 [2]; Lung, group G5 DIBEN500, individual mice",0.0 and 290.3
same,Viral load in tissue (Fig4D),"HCoV-OC43 [2]; Spinal Cord, group G3 DIBEN100, individual mice",1299.4 and 4131.1 and 125.4 and 477.6 and 568.4 and 1615.1
same,Viral load in tissue (Fig4D),"HCoV-OC43 [2]; Spinal Cord, group G4 DIBEN200, individual mice",7747.0 and 4670.7 and 4797.6 and 4510.0 and 4954.8
same,Viral load in tissue (Fig4D),"HCoV-OC43 [2]; Spinal Cord, group G5 DIBEN500, individual mice",0.0 and 113.9
same,EC50,"HCoV-OC43 [3]; Betacoronavirus 1, OC43, Huh-7, 24 h, read-out: EC50 HCoV-OC43 (Huh-7)",0.09 µM
same,"HCoV-OC43, Huh-7: inhibition at the concentration (Fig2B)",HCoV-OC43 [3]; conc. 0.1 (unit not given),51.3 and 53.7 and 47.2
same,"HCoV-OC43, Huh-7: inhibition at the concentration (Fig2B)",HCoV-OC43 [3]; conc. 0.2 (unit not given),64.6 and 65.3 and 60.0
same,"HCoV-OC43, Huh-7: inhibition at the concentration (Fig2B)",HCoV-OC43 [3]; conc. 0.7 (unit not given),95.4 and 95.1 and 94.4
same,"HCoV-OC43, Huh-7: inhibition at the concentration (Fig2B)",HCoV-OC43 [3]; conc. 2.2 (unit not given),98.2 (2×) and 98.0
same,"HCoV-OC43, Huh-7: inhibition at the concentration (Fig2B)",HCoV-OC43 [3]; conc. 6.7 (unit not given),98.4
same,"HCoV-OC43, Huh-7: inhibition at the concentration (Fig2B)",HCoV-OC43 [3]; conc. 20.0 (unit not given),98.3 (2×) and 98.5
